According to patent US20130344026A1, “Dimeric Smac Mimetics” (priority 2009, published 2013):
Like-named read-outs stand apart in the source and are kept apart here.

Test system: HCC461
Experiment: cell viability assay in HCC461, compound alone
Format: cell-based
[1] = HCC461, HCC461, Tables 6-9, read-out: IC50 (μM) in cell viability assay in HCC461
[2] = HCC461, HCC461 cells, compound alone, read-out: IC50 (uM) in cell viability assay in HCC461
[3] = HCC461, HCC461, Tables 15-18, read-out: IC50 (uM) in cell viability assay in HCC461
[4] = HCC461, Tables 15-18, read-out: IC50 (uM) in cell viability assay in HCC461

| IC50 [1] | IC50 [2] | Structure (SMILES) | further results |
| --- | --- | --- | --- |
| 0.017 µM |  | CN[C@@H](C)C(=O)N[C@H](C(=O)N1C[C@@H](NC(=O)c2cccc(C(=O)N[C@H]3C[C@@H](C(=O)N[C@H](C)C(C)C)N(C(=O)[C@@H](NC(=O)[C@H](C)NC)C(C)(C)C)C3)c2)C[C@H]1C(=O)N[C@@H]1CCCc2ccccc21)C(C)(C)C [Compound 132] |  |
|  | 0.057 µM | CN[C@@H](C)C(=O)N[C@H](C(=O)N1C[C@@H](NC(=O)/C=C/C(=O)N[C@H]2C[C@@H](C(=O)N[C@H](C)c3ccccc3)N(C(=O)[C@@H](NC(=O)[C@H](C)NC)C(C)(C)C)C2)C[C@H]1C(=O)N[C@H](C)c1ccccc1)C(C)(C)C [Compound P3-75] |  |
| 0.467 µM |  | CCC[C@H](NC(=O)[C@H](C)NC)C(=O)N1C[C@@H](NC(=O)c2cccc(C(=O)N[C@H]3C[C@@H](C(=O)N[C@@H]4CCCc5ccccc54)N(C(=O)[C@@H](NC(=O)[C@H](C)NC)C(C)(C)C)C3)c2)C[C@H]1C(=O)N1CCCC1 [Compound 155] |  |
| 0.072 µM |  | CN[C@@H](C)C(=O)N[C@@H](CCC(=O)OC)C(=O)N1C[C@@H](NC(=O)c2cccc(C(=O)N[C@H]3C[C@@H](C(=O)N[C@@H]4CCCc5ccccc54)N(C(=O)[C@@H](NC(=O)[C@H](C)NC)C(C)(C)C)C3)c2)CC1C(=O)N[C@H](C)c1ccccc1 (some centres unmarked) [Compound 149] |  |
|  |  | C[C@@H](C(=O)N[C@@H](CC#CC#CC[C@H](NC(=O)[C@H](C)N(C)C(=O)C(F)(F)F)C(=O)N1CCC[C@H]1C(=O)N[C@@H]1CCCc2ccccc21)C(=O)N1CCC[C@H]1C(=O)N[C@@H]1CCCc2ccccc21)N(C)C(=O)C(F)(F)F [Compound P2-18] | IC50 [3]: 0.031 µM |
| 29.4 µM |  | CN[C@@H](C)C(=O)N[C@H](C(=O)N1C[C@@H](NC(=O)CC[C@@H](NC(=O)[C@H](NC(=O)[C@@H](C)NC)C(C)C)C(=O)N[C@@H](C)C(C)C)C[C@H]1C(=O)N[C@H](C)C(C)C)C(C)(C)C [Compound 160] |  |
|  | 0.08 µM | CN[C@@H](C)C(=O)N[C@H](C(=O)N1C[C@@H](NC(=O)[C@@H]2[C@@H]3CC[C@@H](C3)[C@@H]2C(=O)N[C@H]2C[C@@H](C(=O)N[C@@H]3CCCc4ccccc43)N(C(=O)[C@@H](NC(=O)[C@H](C)NC)C(C)(C)C)C2)C[C@H]1C(=O)N[C@@H]1CCCc2ccccc21)C(C)(C)C [Compound P3-34] |  |
|  |  | CN[C@@H](C)C(=O)N[C@@H](CC#CC#CC[C@H](NC(=O)[C@H](C)NC)C(=O)N1C[C@@H](NC(C)c2ccccc2)C[C@H]1C(=O)N[C@@H]1CCCc2ccccc21)C(=O)N1C[C@@H](NC(=O)c2ccccc2)C[C@H]1C(=O)N[C@@H]1CCCc2ccccc21 (some centres unmarked) [Compound P2-10] | IC50 [4]: 0.109 µM |
|  | 0.006 µM | CN[C@@H](C)C(=O)N[C@H](C(=O)N1C[C@@H](NC(=O)C(C)C(C)C(=O)N[C@H]2C[C@@H](C(=O)N[C@@H]3CCCc4ccccc43)N(C(=O)[C@@H](NC(=O)[C@H](C)NC)C(C)(C)C)C2)C[C@H]1C(=O)N[C@@H]1CCCc2ccccc21)C(C)(C)C (some centres unmarked) [Compound P3-24] |  |
|  |  | CN[C@@H](C)C(=O)N[C@@H](CCCCCC[C@H](NC(=O)[C@H](C)NC)C(=O)N1C[C@@H](NS(=O)(=O)c2ccccc2)C[C@H]1C(=O)N[C@@H]1CCCc2ccccc21)C(=O)N1C[C@@H](NS(=O)(=O)c2ccccc2)C[C@H]1C(=O)N[C@@H]1CCCc2ccccc21 [Compound P2-14] | IC50 [3]: 0.092 µM |
|  |  | CN[C@@H](C)C(=O)N[C@H](C(=O)N1CCC[C@H]1C(=O)N[C@H](CNC(=O)C1CCCC(C(=O)NC[C@@H](NC(=O)[C@@H]2CCCN2C(=O)[C@@H](NC(=O)[C@H](C)NC)C(C)(C)C)C2CCCCC2)C1)C1CCCCC1)C(C)(C)C (single isomer, unassigned) [Compound P4-5] | IC50 [4]: 0.011 µM |
|  | 0.057 µM | CN[C@@H](C)C(=O)N[C@H](C(=O)N1C[C@@H](NC(=O)c2cccc(C(=O)N[C@H]3C[C@@H](C(=O)N[C@H](C)C4CCCCC4)N(C(=O)[C@@H](NC(=O)[C@H](C)NC)C(C)(C)C)C3)c2)C[C@H]1C(=O)N[C@H](C)C1CCCCC1)C(C)(C)C [Compound P3-43] |  |
|  |  | CN[C@@H](C)C(=O)N[C@@H](CCCCNC(=O)c1cc(O)cc(C(=O)NCCCC[C@H](NC(=O)[C@H](C)NC)C(=O)N2CCC[C@H]2C(=O)N[C@@H]2CCCc3ccccc32)c1)C(=O)N1CCC[C@H]1C(=O)N[C@@H]1CCCc2ccccc21 [Compound P2-25] | IC50 [3]: 0.086 µM |
| 0.221 µM |  | CN[C@@H](C)C(=O)N[C@H](C(=O)N1C[C@@H](NC(=O)CC[C@@H](NC(=O)[C@H](NC(=O)[C@@H](C)NC)C(C)(C)C)C(=O)N[C@H]2CCCc3ccccc32)C[C@H]1C(=O)N[C@H](C)C(C)C)C(C)(C)C [Compound 159] |  |
|  |  | CN[C@@H](C)C(=O)N[C@H](C(=O)N1C[C@@H](NC(=O)c2cccc(C(=O)NCCCC[C@H](NC(=O)[C@@H](NC(=O)[C@H](CO)NC)C(C)(C)C)C(=O)N[C@@H](C)C(C)C)c2)CC1C(=O)N[C@@H]1CCc2ccccc2C1)C(C)(C)C (some centres unmarked) [Compound 165] | IC50 (HCC461, Tables 6-9, read-out: IC50 (μM) in cell viability assay in HCC461): > 30 µM |
|  | 2.38 µM | CN[C@@H](C)C(=O)N[C@H](C(=O)N1C[C@@H](NC(=O)c2nc[nH]c2C(=O)N[C@H]2C[C@@H](C(=O)N[C@@H]3CCCc4ccccc43)N(C(=O)[C@@H](NC(=O)[C@H](C)NC)C(C)(C)C)C2)C[C@H]1C(=O)N[C@@H]1CCCc2ccccc21)C(C)(C)C [Compound P3-36] |  |
|  | 0.002 µM | CN[C@@H](C)C(=O)N[C@H](C(=O)N1C[C@@H](NC(=O)Cc2cccc(CC(=O)N[C@H]3C[C@@H](C(=O)N[C@@H]4CCCc5ccccc54)N(C(=O)[C@@H](NC(=O)[C@H](C)NC)C(C)(C)C)C3)c2)C[C@H]1C(=O)N[C@@H]1CCCc2ccccc21)C(C)(C)C [Compound P3-19] |  |
|  | 0.013 µM | CN[C@@H](C)C(=O)N[C@H](C(=O)N1C[C@@H](NC(=O)c2cc(C(=O)N[C@H]3C[C@@H](C(=O)NC4CCCc5ccccc54)N(C(=O)[C@@H](NC(=O)[C@H](C)NC)C(C)(C)C)C3)ccc2Br)CC1C(=O)N[C@@H]1CCCc2ccccc21)C(C)(C)C (some centres unmarked) [Compound P3-30] |  |
| 0.28 µM |  | CCC[C@H](NC(=O)[C@H](C)NC)C(=O)N1C[C@@H](NC(=O)c2cccc(C(=O)N[C@H]3C[C@@H](C(=O)N[C@@H]4CCCc5ccccc54)N(C(=O)[C@@H](NC(=O)[C@H](C)NC)C(C)(C)C)C3)c2)C[C@H]1C(=O)N[C@H](C)C(C)C [Compound 140] |  |
| 0.083 µM |  | CCC[C@H](NC(=O)[C@H](C)NC)C(=O)N1C[C@@H](NC(=O)c2cccc(C(=O)N[C@H]3C[C@@H](C(=O)N[C@@H]4CCCc5ccccc54)N(C(=O)[C@@H](NC(=O)[C@H](C)NC)C(C)(C)C)C3)c2)C[C@H]1C(=O)NC(C)(C)C [Compound 156] |  |

| Structure (SMILES) | IC50 [1] | IC50 [2] | further results |
| --- | --- | --- | --- |
| CN[C@@H](C)C(=O)N[C@@H](CCCCNC(=O)c1cccc(C(=O)N[C@H]2CCN(C(=O)[C@@H](NC(=O)[C@H](C)NC)C(C)(C)C)C2)c1)C(=O)N1CCC[C@H]1C(=O)N[C@@H]1CCCc2ccccc21 [Compound 135] | 12.1 µM |  |  |
| CN[C@@H](C)C(=O)N[C@H](C(=O)N1C[C@@H](NC(=O)c2ccc(CNC(=O)CCC(=O)NCc3ccc(C(=O)N[C@H]4C[C@@H](C(=O)NC5CCCc6ccccc65)N(C(=O)[C@@H](NC(=O)[C@H](C)NC)C(C)(C)C)C4)cc3)cc2)C[C@H]1C(=O)NC1CCCc2ccccc21)C(C)(C)C (single isomer, unassigned) [Compound P3-70] |  | 0.06 µM |  |
| CN[C@@H](C)C(=O)N[C@H](C(=O)N1C[C@@H](NC(=O)c2cccc(C(=O)N[C@H]3C[C@@H](C(=O)N[C@@H]4CCCc5ccccc54)N(C(=O)[C@@H](NC(=O)[C@H](C)NC)C(C)(C)C)C3)n2)C[C@H]1C(=O)N[C@@H]1CCCc2ccccc21)C(C)(C)C [Compound P3-10] |  | 0.046 µM |  |
